From patent US20050203163A1, “Farnesyl transferase inhibitors in combination with HMG CoA reductase inhibitors for the treatment of cancer” (Pfizer Inc, priority 1997, published 2005) come the findings set out here.

The test system of this test is K-Ras 4B. The experiment in a line: Prenylation of K-ras 4B in intact cells (immunoblot, densitometric scanning). Format: cell-based. Conditions: 5 μM hydrolysed lovastatin alone (Compound 1 at 0); NIH-3T3 transfectant overexpressing mutant K-Ras 4B; 18 hours at 37° C.

Regarding `CC[C@H](C)C(=O)O[C@H]1C[C@@H](C)C=C2C=C[C@H](C)[C@H](CC[C@@H]3C[C@@H](O)CC(=O)O3)[C@H]21` [Lovastatin, lovastatin], the “% Inhibition OF K-Ras 4B Prenylation” value was found to be 23%.
